Test system: CD8-expressing T cells
Experiment: ELISPOT of IFN-γ secretion in T cells activated by dendritic cells loaded with LMP2a epitope groups
Assay type: cell-based, human
Settings: DC:CD8 T cells 1:10, 18 hours
[1] = healthy human donor N5 (N5-1 and N5-2, repeated twice), FIGS. 1 and 2
[2] = healthy human donor N15, FIG. 4

Substance	expression of IFN-γ in T cells (ELISPOT) (healthy human donor N9, FIG. 3)	expression of IFN-γ in T cells (ELISPOT) [1]	expression of IFN-γ in T cells (ELISPOT) [2]
16 (EDLDWGNGDRHSDYQ; LMP2a epitope) [compound 16]	increased expression of IFN-γ	–	–
20 (LGNQDPSLYLGLQHD; LMP2a epitope) [compound 20]	increased expression of IFN-γ	–	–
9 (SASGSYGNTPTPPND; LMP2a epitope) [compound 9]	–	increased expression of IFN-γ	increased expression of IFN-γ
18 (DRHSDYQPLGNQDPS; LMP2a epitope) [compound 18]	–	increased expression of IFN-γ	–
3 (MGAGPPSPGGDPDGD; LMP2a epitope) [compound 3]	increased expression of IFN-γ	increased expression of IFN-γ	increased expression of IFN-γ
15 (PPPYEDLDWGNGDRH; LMP2a epitope) [compound 15]	increased expression of IFN-γ	increased expression of IFN-γ	increased expression of IFN-γ
19 (DYQPLGNQDPSLYLG; LMP2a epitope) [compound 19]	increased expression of IFN-γ	–	–
12 (PNDEERESNEEPPPP; LMP2a epitope) [compound 12]	–	increased expression of IFN-γ	–
8 (SQYPSASGSYGNTPT; LMP2a epitope) [compound 8]	increased expression of IFN-γ	–	increased expression of IFN-γ
5 (GGDPDGDDGGNNSQY; LMP2a epitope) [compound 5]	–	–	increased expression of IFN-γ

— patent US20230210896A9, “METHOD FOR T CELL ACTIVATION FOR CANCER TREATMENT” (GOOD T CELLS, INC., priority 2019, published 2023)
